Data from PubChem BioAssay AID248 (DTP/NCI, 2004).
Toxic doses and inconclusive results are not listed.

Test system: L1210 leukemia ip in BDF1 mice, survival T/C
Experiment: NCI In Vivo Anticancer Drug Screen. Data for tumor model L1210 Leukemia (intraperitoneal) in B6D2F1 (BDF1) mice
Details: endpoint: mean survival time, higher = longer survival
Outline: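 Ratio derived from survival: compound-dosed mice over vehicle-dosed mice, all bearing a transplantable tumor.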

[1] = dose: 100.0 mg/kg/injection, schedule: Q01DX009 (ip), vehicle: saline with Tween-80
[2] = dose: 200.0 mg/kg/injection, schedule: Q01DX009 (ip), vehicle: saline with Tween-80
[3] = dose: 400.0 mg/kg/injection, schedule: Q01DX009 (ip), vehicle: saline with Tween-80
[4] = dose: 20.0 mg/kg/injection, schedule: Q01DX001 (ip), vehicle: saline
[5] = dose: 40.0 mg/kg/injection, schedule: Q01DX001 (ip), vehicle: saline
[6] = dose: 80.0 mg/kg/injection, schedule: Q01DX001 (ip), vehicle: saline
[7] = dose: 100.0 mg/kg/injection, schedule: Q01DX001 (ip), vehicle: saline
[8] = dose: 25.0 mg/kg/injection, schedule: Q01DX009 (ip), vehicle: Klucel (hydroxypropylcellulose) (HPC)
[9] = dose: 50.0 mg/kg/injection, schedule: Q01DX001 (ip), vehicle: saline
[10] = dose: 50.0 mg/kg/injection, schedule: Q01DX009 (ip), vehicle: Klucel (hydroxypropylcellulose) (HPC)
[11] = dose: 100.0 mg/kg/injection, schedule: Q04DX003 (ip), vehicle: saline with Tween-80
[12] = dose: 200.0 mg/kg/injection, schedule: Q04DX003 (ip), vehicle: saline with Tween-80
[13] = dose: 400.0 mg/kg/injection, schedule: Q04DX003 (ip), vehicle: saline with Tween-80
[14] = dose: 100.0 mg/kg/injection, schedule: Q01DX009 (ip), vehicle: Klucel (hydroxypropylcellulose) (HPC)
[15] = dose: 200.0 mg/kg/injection, schedule: Q01DX001 (ip), vehicle: saline
[16] = dose: 400.0 mg/kg/injection, schedule: Q01DX001 (ip), vehicle: saline
[17] = dose: 100.0 mg/kg/injection, schedule: Q01DX001 (ip), vehicle: carboxymethylcellulose (CMC)
[18] = dose: 50.0 mg/kg/injection, schedule: Q04DX002 (ip), vehicle: saline

For `N#CN(Cc1ccc(Cl)cc1Cl)C(=O)OCOc1ccc(Cl)cc1`, the T/C [1] was 91 % of control, the T/C [2] was 96 % of control and the T/C [3] was 107 % of control.

`Cc1c(-[n+]2ccccc2)[nH]c2ccccc12` was tested, and the T/C (dose: 5.0 mg/kg/injection, schedule: Q01DX001 (ip), vehicle: saline) was 103 % of control, the T/C (dose: 10.0 mg/kg/injection, schedule: Q01DX001 (ip), vehicle: saline) was 103 % of control and the T/C [4] was 101 % of control. The T/C [5] was 104 % of control, the T/C [6] was 106 % of control and the T/C [7] was 92 % of control.

In the case of `CC1=CC(=N\S(=O)(=O)c2ccccc2)/c2ccccc2/C1=N/S(=O)(=O)c1ccccc1`, the T/C (dose: 25.0 mg/kg/injection, schedule: Q01DX001 (ip), vehicle: saline sonified) is reported as 92 % of control, the T/C (dose: 50.0 mg/kg/injection, schedule: Q01DX001 (ip), vehicle: saline sonified) is reported as 95 % of control and the T/C (dose: 100.0 mg/kg/injection, schedule: Q01DX001 (ip), vehicle: saline sonified) is reported as 95 % of control.

In the case of `CC[n+]1c(C)ccc2ccccc21`, the T/C [8] is reported as 91 % of control, the T/C (dose: 25.0 mg/kg/injection, schedule: Q04DX003 (ip), vehicle: Klucel (hydroxypropylcellulose) (HPC)) is reported as 99 % of control and the T/C [9] is reported as 95 % of control. The T/C [10] was 91 % of control and the T/C (dose: 50.0 mg/kg/injection, schedule: Q04DX003 (ip), vehicle: Klucel (hydroxypropylcellulose) (HPC)) was 99 % of control.

With `CC(C)(Br)C(=O)c1ccc(Cl)s1` the T/C [11] was 96 % of control, the T/C [12] was 107 % of control and the T/C [13] was 105 % of control.

For `CCC(C(=O)Cl)c1ccc(-c2ccccc2)cc1` (stereo unspecified), the T/C (dose: 50.0 mg/kg/injection, schedule: Q01DX001 (ip), vehicle: saline with Tween-80) was 96 % of control, the T/C (dose: 100.0 mg/kg/injection, schedule: Q01DX001 (ip), vehicle: saline with Tween-80) was 96 % of control and the T/C (dose: 200.0 mg/kg/injection, schedule: Q01DX001 (ip), vehicle: saline with Tween-80) was 96 % of control.

For `Cc1ccc(N)c2cccnc12`, the T/C [14] was 93 % of control.

With `CC1CN(C(C)C)C1` the T/C (dose: 100.0 mg/kg/injection, schedule: Q01DX001 (ip), vehicle: acetone) was 101 % of control and the T/C (dose: 200.0 mg/kg/injection, schedule: Q01DX001 (ip), vehicle: acetone) was 97 % of control.

With `CCCOc1ccc(=S)[nH]n1` the T/C [7] was 103 % of control, the T/C (dose: 100.0 mg/kg/injection, schedule: Q04DX003 (ip), vehicle: saline) was 101 % of control and the T/C [15] was 95 % of control. For the same molecule, the T/C (dose: 200.0 mg/kg/injection, schedule: Q04DX003 (ip), vehicle: saline) was 106 % of control, the T/C [16] was 98 % of control and the T/C (dose: 400.0 mg/kg/injection, schedule: Q04DX003 (ip), vehicle: saline) was 95 % of control.

With `O=c1ccn(Cc2ccccc2)c(SCc2ccccc2)n1` the T/C [9] was 105 % of control, the T/C [10] was 102 % of control and the T/C [7] was 109 % of control. The T/C [14] was 95 % of control, the T/C [15] was 91 % of control and the T/C (dose: 200.0 mg/kg/injection, schedule: Q01DX009 (ip), vehicle: Klucel (hydroxypropylcellulose) (HPC)) was 98 % of control. For the same molecule, the T/C [16] was 105 % of control.

For `CCOC(=O)CNC(=O)Oc1cccc2cccnc12`, the T/C [1] was 103 % of control and the T/C [2] was 101 % of control.

In the case of `O=C(CNC(=O)c1cccc(C(=O)NCC(=O)Nc2ccc(C3=NCCN3)cc2)c1)Nc1ccc(C2=NCCN2)cc1`, the T/C (dose: 4.0 mg/kg/injection, schedule: Q01DX Z (ip), vehicle: water) is reported as 107 % of control, the T/C (dose: 6.0 mg/kg/injection, schedule: Q01DX Z (ip), vehicle: water) is reported as 104 % of control and the T/C (dose: 9.0 mg/kg/injection, schedule: Q01DX Z (ip), vehicle: water) is reported as 113 % of control. The T/C (dose: 12.0 mg/kg/injection, schedule: Q01DX Z (ip), vehicle: water) was 153 % of control.

With `COc1ccc(OC(=O)OCc2ccccc2)cc1` the T/C (dose: 100.0 mg/kg/injection, schedule: Q04DX003 (ip), vehicle: Klucel (hydroxypropylcellulose) (HPC)) was 101 % of control, the T/C (dose: 200.0 mg/kg/injection, schedule: Q04DX003 (ip), vehicle: Klucel (hydroxypropylcellulose) (HPC)) was 101 % of control and the T/C (dose: 400.0 mg/kg/injection, schedule: Q04DX003 (ip), vehicle: Klucel (hydroxypropylcellulose) (HPC)) was 109 % of control.

`CCCCCC(=O)N1CCCCC1` was tested, and the T/C [8] was 93 % of control, the T/C [10] was 96 % of control and the T/C [14] was 94 % of control.

In the case of `O=C(/C=C/c1ccccc1)CCN1CCC2CCC(C2)C1` (stereo unspecified), the T/C (dose: 50.0 mg/kg/injection, schedule: Q01DX001 (ip), vehicle: carboxymethylcellulose (CMC)) is reported as 103 % of control and the T/C [17] is reported as 97 % of control.

`O=C(O)CCC1(c2ccccc2)CCCC1=O` (stereo unspecified) was tested, and the T/C (dose: 12.5 mg/kg/injection, schedule: Q01DX009 (ip), vehicle: water) was 101 % of control, the T/C (dose: 25.0 mg/kg/injection, schedule: Q01DX009 (ip), vehicle: water) was 104 % of control and the T/C (dose: 50.0 mg/kg/injection, schedule: Q01DX009 (ip), vehicle: water) was 98 % of control. For the same molecule, the T/C (dose: 100.0 mg/kg/injection, schedule: Q01DX009 (ip), vehicle: water) was 95 % of control.

For `CCOC=Nc1c(C)c[n+]([O-])nc1OC`, the T/C (dose: 12.5 mg/kg/injection, schedule: Q04DX002 (ip), vehicle: saline) was 102 % of control, the T/C (dose: 25.0 mg/kg/injection, schedule: Q04DX002 (ip), vehicle: saline) was 102 % of control and the T/C [18] was 98 % of control.

`O=C(NCCCl)NC1CCS(=O)(=O)C1` (stereo unspecified) was tested, and the T/C (dose: 100.0 mg/kg/injection, schedule: Q01DX001 (ip), vehicle: other) was 98 % of control, the T/C (dose: 200.0 mg/kg/injection, schedule: Q01DX001 (ip), vehicle: other) was 98 % of control and the T/C (dose: 400.0 mg/kg/injection, schedule: Q01DX001 (ip), vehicle: other) was 98 % of control.

`CC1CCCN(C(=O)/C=C/c2ccccc2)C1` (stereo unspecified) was tested, and the T/C [18] was 104 % of control, the T/C (dose: 100.0 mg/kg/injection, schedule: Q04DX002 (ip), vehicle: Klucel (hydroxypropylcellulose) (HPC)) was 91 % of control and the T/C (dose: 100.0 mg/kg/injection, schedule: Q04DX002 (ip), vehicle: saline) was 93 % of control. The T/C (dose: 200.0 mg/kg/injection, schedule: Q04DX002 (ip), vehicle: Klucel (hydroxypropylcellulose) (HPC)) was 95 % of control, the T/C (dose: 200.0 mg/kg/injection, schedule: Q04DX002 (ip), vehicle: saline) was 97 % of control and the T/C (dose: 400.0 mg/kg/injection, schedule: Q04DX002 (ip), vehicle: Klucel (hydroxypropylcellulose) (HPC)) was 95 % of control.

`COc1ccc(CN2CCCN(Cc3ccc(OC)cc3)C2c2c(O)ccc3ccccc23)cc1` was tested, and the T/C (dose: 5.0 mg/kg/injection, schedule: Q01DX001 (ip), vehicle: acetone) was 100 % of control, the T/C (dose: 10.0 mg/kg/injection, schedule: Q01DX001 (ip), vehicle: acetone) was 95 % of control and the T/C (dose: 20.0 mg/kg/injection, schedule: Q01DX001 (ip), vehicle: acetone) was 92 % of control. For the same molecule, the T/C (dose: 40.0 mg/kg/injection, schedule: Q01DX001 (ip), vehicle: acetone) was 88 % of control.

For `CCN(c1ccccc1)c1ccc([N+](=O)[O-])cc1[N+](=O)[O-]`, the T/C [17] was 107 % of control, the T/C (dose: 200.0 mg/kg/injection, schedule: Q01DX001 (ip), vehicle: carboxymethylcellulose (CMC)) was 91 % of control and the T/C (dose: 400.0 mg/kg/injection, schedule: Q01DX001 (ip), vehicle: carboxymethylcellulose (CMC)) was 100 % of control.

With `CC(=O)n1cc(C2CC(=O)OC3=C2C(=O)CCC3)c2ccccc21` (stereo unspecified) the T/C [1] was 93 % of control, the T/C [11] was 89 % of control and the T/C [2] was 93 % of control. For the same molecule, the T/C [12] was 89 % of control, the T/C [3] was 97 % of control and the T/C [13] was 91 % of control.

In the case of `Nc1nc(N)c2nc(CNc3ccccc3)cnc2n1`, the T/C (dose: 20.0 mg/kg/injection, schedule: Q01DX009 (ip), vehicle: Klucel (hydroxypropylcellulose) (HPC)) is reported as 96 % of control, the T/C (dose: 40.0 mg/kg/injection, schedule: Q01DX009 (ip), vehicle: Klucel (hydroxypropylcellulose) (HPC)) is reported as 105 % of control and the T/C (dose: 80.0 mg/kg/injection, schedule: Q01DX009 (ip), vehicle: Klucel (hydroxypropylcellulose) (HPC)) is reported as 96 % of control.

For `NC(N1CC1)(C(F)(F)F)C(F)(F)F`, the T/C [4] was 100 % of control, the T/C (dose: 20.0 mg/kg/injection, schedule: Q04DX003 (ip), vehicle: saline) was 102 % of control and the T/C [5] was 111 % of control. For the same molecule, the T/C (dose: 40.0 mg/kg/injection, schedule: Q04DX003 (ip), vehicle: saline) was 102 % of control, the T/C [6] was 102 % of control and the T/C (dose: 80.0 mg/kg/injection, schedule: Q04DX003 (ip), vehicle: saline) was 94 % of control.
